Common to all, as to format: functional, cell-based
Assay [1] deals with T1, ATP-binding cassette sub-family C member 2 (Homo sapiens, UniProt Q92887). Kind of assay: TP_TRANSPORTER: inhibition of Vinblastine transepithelial transport (basal to apical)(Quinidine: 15 uM) in MRP2-expressing MDCK cells.
Assay [2] has as its target T1, ATP-binding cassette sub-family C member 2. Kind of assay: TP_TRANSPORTER: inhibition of Vinblastine transepithelial transport (basal to apical) in MRP2-expressing MDCK cells.
Assay [3] shares this target. The assay can be described thus: TP_TRANSPORTER: inhibition of Vinblastine transepithelial transport (basal to apical)(GF120918: 12 uM) in MRP2-expressing MDCK cells.

The text below walks through data of ChEMBL document CHEMBL2073914, “Are MDCK cells transfected with the human MRP2 gene a good model of the human intestinal mucosa?” (Pharm Res, 2002).

The term Ki denotes the dissociation constant of the complex between target and ligand, obtained from inhibition or displacement. Read a high Ki as lower affinity.

T1 sequence (Q92887 whole entry): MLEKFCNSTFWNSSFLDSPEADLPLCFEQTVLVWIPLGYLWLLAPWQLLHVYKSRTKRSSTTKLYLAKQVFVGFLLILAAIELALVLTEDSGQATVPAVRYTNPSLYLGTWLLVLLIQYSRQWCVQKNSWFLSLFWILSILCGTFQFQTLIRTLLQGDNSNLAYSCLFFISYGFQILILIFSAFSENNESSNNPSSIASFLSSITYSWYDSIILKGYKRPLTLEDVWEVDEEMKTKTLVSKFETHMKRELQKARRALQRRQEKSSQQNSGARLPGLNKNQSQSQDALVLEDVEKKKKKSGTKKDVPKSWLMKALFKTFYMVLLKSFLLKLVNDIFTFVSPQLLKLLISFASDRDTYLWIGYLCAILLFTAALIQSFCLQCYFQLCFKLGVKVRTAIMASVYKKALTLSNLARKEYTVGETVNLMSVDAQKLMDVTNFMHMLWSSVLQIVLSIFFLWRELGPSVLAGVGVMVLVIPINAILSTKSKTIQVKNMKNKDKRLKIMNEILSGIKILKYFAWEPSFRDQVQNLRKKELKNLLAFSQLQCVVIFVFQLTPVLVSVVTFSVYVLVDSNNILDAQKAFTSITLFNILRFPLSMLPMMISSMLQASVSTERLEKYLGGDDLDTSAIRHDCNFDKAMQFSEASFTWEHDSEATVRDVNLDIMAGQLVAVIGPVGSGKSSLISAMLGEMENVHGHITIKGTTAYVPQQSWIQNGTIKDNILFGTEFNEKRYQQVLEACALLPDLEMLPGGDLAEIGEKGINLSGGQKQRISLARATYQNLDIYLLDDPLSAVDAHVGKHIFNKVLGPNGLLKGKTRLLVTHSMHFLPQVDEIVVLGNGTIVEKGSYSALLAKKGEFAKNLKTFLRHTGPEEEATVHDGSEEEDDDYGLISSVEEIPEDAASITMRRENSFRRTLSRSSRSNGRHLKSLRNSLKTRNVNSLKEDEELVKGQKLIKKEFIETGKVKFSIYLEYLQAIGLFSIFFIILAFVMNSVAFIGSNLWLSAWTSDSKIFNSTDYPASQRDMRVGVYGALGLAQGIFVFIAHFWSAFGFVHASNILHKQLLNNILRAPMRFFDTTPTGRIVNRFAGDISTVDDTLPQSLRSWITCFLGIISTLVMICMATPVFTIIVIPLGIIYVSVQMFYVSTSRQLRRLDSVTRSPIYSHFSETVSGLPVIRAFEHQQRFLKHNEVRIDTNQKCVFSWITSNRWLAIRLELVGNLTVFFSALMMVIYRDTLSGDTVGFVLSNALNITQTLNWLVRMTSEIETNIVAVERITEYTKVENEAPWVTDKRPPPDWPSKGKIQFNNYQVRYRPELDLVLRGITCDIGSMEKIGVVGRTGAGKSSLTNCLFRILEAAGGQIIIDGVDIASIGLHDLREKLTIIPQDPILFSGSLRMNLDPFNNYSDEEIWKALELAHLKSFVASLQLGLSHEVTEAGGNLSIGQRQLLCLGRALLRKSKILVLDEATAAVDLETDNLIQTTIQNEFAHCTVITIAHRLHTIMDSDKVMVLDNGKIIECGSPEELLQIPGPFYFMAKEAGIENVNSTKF

With `C=C[C@H]1CN2CC[C@H]1C[C@@H]2[C@@H](O)c1ccnc2ccc(OC)cc12` [QUINIDINE], the Ki result in assay [1] is “is not an inhibitor [Ki=No inhibition]”.

In assay [2], `COC(=O)[C@H]1[C@H]2C[C@@H]3c4[nH]c5cc(OC)ccc5c4CCN3C[C@H]2C[C@@H](OC(=O)c2cc(OC)c(OC)c(OC)c2)[C@@H]1OC` [RESERPINE] gave a Ki of 295 µM.

In turn, `COc1cccc2c1C(=O)c1c(O)c3c(c(O)c1C2=O)C[C@@](O)(C(C)=O)C[C@@H]3O[C@H]1C[C@H](N)[C@H](O)[C@H](C)O1` [DAUNORUBICIN] had a Ki in assay [2] of 49.4 µM.

`CN(C)C(=O)CCSC(SCCC(=O)O)c1cccc(/C=C/c2ccc3ccc(Cl)cc3n2)c1` (configuration not stated) [MK-571] showed a Ki in assay [2] of 26.4 µM.

The compound `COc1cc([C@@H]2c3cc4c(cc3[C@@H](O[C@@H]3O[C@@H]5CO[C@@H](C)O[C@H]5[C@H](O)[C@H]3O)[C@H]3COC(=O)[C@H]23)OCO4)cc(OC)c1O` [ETOPOSIDE] yielded a Ki in assay [2] of 756 µM.

As for `COc1cc2c(cc1OC)CN(CCc1ccc(NC(=O)c3cccc4c(=O)c5cccc(OC)c5[nH]c34)cc1)CC2.Cl` [ELACRIDAR HYDROCHLORIDE], the Ki result in assay [3] is “is not an inhibitor [Ki=No inhibition]”.

Consider `CC[C@]1(O)C[C@H]2CN(CCc3c([nH]c4ccccc34)[C@@](C(=O)OC)(c3cc4c(cc3OC)N(C=O)[C@H]3[C@@](O)(C(=O)OC)[C@H](OC(C)=O)[C@]5(CC)C=CCN6CC[C@]43[C@@H]65)C2)C1` [VINCRISTINE], for which the Ki in assay [2] came to 802 µM.
